Earlier results as cited in US7084135B1, “Prenyl transferase inhibitors” (Societe de Conseils de Recherches et d'Applications …, priority 1998, dated 2006).

How the values were obtained:
DU145 adenocarcinoma = settings: Prostate: DU145 adenocarcinoma, with WT ras
HT29, adenocarcinoma = settings: Colon: HT29, adenocarcinoma with Wild Type ras (WT)

CC[C@H](C)[C@@H](COC(Cc1ccccc1)C(=O)N[C@@H](CCS(C)(=O)=O)C(=O)OC(C)C)NC[C@@H](N)CS (some centres unmarked) [Compound L744-832]
sensitivity of cell line to L744-832 (DU145 adenocarcinoma): resistant | sensitivity of cell line to L744-832 (HT29, adenocarcinoma): sensitive
